Test results from patent US8093265B2, “Bicycloheteroaryl compounds as P2X7 modulators and uses thereof” (Renovis, Inc., priority 2007, dated 2012).

Key:
[1] = Half-life in human liver microsomes (HLM); format: in vitro ADME; conditions: human liver microsomes 0.78 mg/mL, 1 μM compound, NADPH, 37° C.; for half-life at 1 μM: pH 7.4
Protocol: Half-Life in Human Liver Microsomes (HLM)
Test compounds (1 μM) are incubated with 3.3 mM MgCl2 and 0.78 mg/mL HLM (HL101) in 100 mM potassium phosphate buffer (pH 7.4) at 37° C. on the 96-deep well plate. The reaction mixture is split into two groups, a non-P450 and a P450 group. NADPH is only added to the reaction mixture of the P450 group. An aliquot of samples of P450 group is collected at 0, 10, 30, and 60 min time point, where 0 min time point indicated the time when NADPH is added into the reaction mixture of P450 group. […] Collected aliquots are extracted with acetonitrile solution containing an internal standard. […] The compound concentration in supernatant is measured by LC/MS/MS system.
The half-life value is obtained by plotting the natural logarithm of the peak area ratio of compounds/internal standard versus time. The slope of the line of best fit through the points yields the rate of metabolism (k). This is converted to a half-life value using following equations: Half-life=ln 2/k

[2] = Pharmacokinetic evaluation following intravenous and oral administration in rats; format: in vivo, rat; conditions: male Sprague-Dawley rats; PO 1 to 5 mg/kg vs IV 1 mg/kg; AUCinf(PO)/AUCinf(IV) dose-normalized
Protocol: Pharmacokinetic Evaluation of Compounds Following Intravenous and Oral Administration in Rats.
Male Sprague-Dawley rats are acclimated for at least 24 hours prior to experiment initiation. During the acclimation period, all animals receive food and water ad libitum. However, food but not water is removed from the animals' cages at least 12 hours before initiation of the experiment. During the first 3 hours of experimentation, the animals receive only water ad libitum. At least three animals each are tested for intravenous and oral dosage. For intravenous formulation, compounds are dissolved (0.25 to 1 mg/mL) in a mixture of 3% dimethyl sulfoxide, 40% PEG 400 and the rest percentage of 40% Captisol in water (w/v). The animals are weighed before dosing. The determined body weight is used to calculate the dose volume for each animal. Dose volume (mL/kg)=1 mg/kg/formulation concentration (mg/mL)
In instances where the formulation concentrations are less than 0.5 mg/mL, the dosing volume is about 2 mL/kg.
For oral formulation, compounds of this invention are suspended (0.5 to 0.75 mg/mL) in a mixture of 5% of 10% Tween 80 in water (v/v) and 95% of 0.5% methyl cellulose in water (w/v). PO rats are typically dosed through oral gavage following the same dose volume formula as IV to achieve a dose level of 1 to 5 mg/kg. For IV dosing, blood samples are collected (using a pre-heparinized syringe) via the jugular vein catheter at 2, 5, 15, 30, 60, 120, 180, 300, 480, and 1440 minutes post dosing. For PO dosing blood samples are collected (using a pre-heparinized syringe) via the jugular vein catheter before dosing and at 5, 15, 30, 60, 120, 180, 300, 480, and 1440 minutes post dosing. About 250 uL of blood is obtained at each time point from the animal. Equal volumes of 0.9% normal saline are replaced to prevent dehydration. The whole blood samples are maintained on ice until centrifugation. Blood samples are then centrifuged at 14,000 rpm for 10 minutes at 4° C., and the upper plasma layer is then transferred into a clean vial and stored at −80° C. The resulting plasma samples are then analyzed by liquid chromatography-tandem mass spectrometry. Following the measurement of plasma samples and dosing solutions, plasma concentration-time curve is plotted. Plasma exposure is calculated as the area under the concentration-time curve extrapolated to time infinite (AUCinf). The AUCinf is averaged and the oral bioavailability (% F) for individual animal is calculated as: • AUCinf(PO)/AUCinf(IV), normalized to their respective dose levels.
The % F can be reported as the mean % F of all animals dosed orally with the compound of the invention at the specified level.
For the purpose of Table 3, the oral bioavailability of each compound is expressed as follows: […]

[3] = target: T1, P2X7 receptor (Homo sapiens, UniProt Q99572); assay: IL-1β release assay in differentiated THP-1 cells (Example 9); format: cell-based; conditions: THP-1 cells differentiated with LPS and IFN-γ; 30 min pretreatment; BzATP 250 uM; IL-1β by ELISA
T1 construct: host or cells: THP-1 cells differentiated with LPS and IFN-γ
T1 sequence (Q99572 1-595): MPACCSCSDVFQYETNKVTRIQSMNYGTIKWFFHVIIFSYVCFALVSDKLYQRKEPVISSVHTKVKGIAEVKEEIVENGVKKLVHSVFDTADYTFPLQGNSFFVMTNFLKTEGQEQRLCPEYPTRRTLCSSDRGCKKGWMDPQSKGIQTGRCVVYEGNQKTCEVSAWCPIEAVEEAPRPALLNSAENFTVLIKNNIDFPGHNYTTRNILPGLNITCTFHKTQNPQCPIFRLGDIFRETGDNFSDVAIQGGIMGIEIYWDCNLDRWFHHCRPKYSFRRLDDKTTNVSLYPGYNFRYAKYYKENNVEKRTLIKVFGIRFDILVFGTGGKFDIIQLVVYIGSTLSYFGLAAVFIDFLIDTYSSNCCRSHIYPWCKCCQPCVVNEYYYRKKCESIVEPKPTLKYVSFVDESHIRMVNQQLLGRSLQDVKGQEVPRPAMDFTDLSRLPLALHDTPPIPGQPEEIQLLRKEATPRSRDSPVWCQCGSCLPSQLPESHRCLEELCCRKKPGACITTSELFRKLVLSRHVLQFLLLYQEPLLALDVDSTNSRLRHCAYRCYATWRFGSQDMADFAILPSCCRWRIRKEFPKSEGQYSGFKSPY
In short: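 THP-1 cells differentiated 16 h with LPS and IFN-γ (100 ng/mL each), re-primed 2 h with LPS, then pretreated 30 min with compound before 250 uM BzATP for 45 min. Supernatant IL-1β measured by ELISA; background-adjusted % inhibition fitted to a four-parameter logistic for IC50.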

[4] = Plasma protein binding by equilibrium dialysis, human plasma; format: in vitro ADME; conditions: pH 7.4, equilibrium dialysis 16 hr at 37° C., % Bound
Protocol: The plasma protein binding of compounds of invention is measured in human and rat plasma, respectively. A stock solution of the tested compound is prepared in 1 mg/mL in DMSO solution. The stock solution is spiked into the blank plasma to get a final compound concentration at 1 μg/mL for testing. Equilibrium dialysis (The equilibrium dialyzer-96TM MWCO 5K Daltons, Harvard Apparatus) method is used for the testing purpose.
The compound spiked plasma (at […]) and phosphate buffer (0.1 M, pH 7.4), 200 μl each, are added into the opposite sides of the membrane in a 96-well equilibrium dialyzer, respectively. The dialyzer plate is covered and incubated overnight (16 hr) at 37° C. in the 8-plate rotor incubator (Big Shot III 8-plate rotor, Harvard Apparatus). Aliquots (100 μL) are taken from the plasma and the buffer compartments, respectively. The matrix effects are eliminated by adding the same volume of blank plasma into the samples from buffer compartments and adding the same volume of phosphate buffer into the samples from plasma compartments. The samples are extracted by using the regular (3:1) protein precipitation extraction procedure (acetonitrile with internal standard). The supernatants are taken for LC/MS/MS analysis. The percentage of plasma-protein binding can be calculated by using the following method: % Free=[Free Drug/Total Drug]*100=[(Peak Area)buffer/(Peak Area)plasma]*100 % Bound=100−% Free.
For the purpose of Table 4, the plasma protein binding of each compound is expressed as follows: […]

| SMILES | half-life at 1 μM [1] [h] | Oral Bioavailability F (%) [2] | IC50 [3] [nM] | Half Life [1] [h] | fraction unbound at 16 hr, 1 μg/mL [4] |
| --- | --- | --- | --- | --- | --- |
| C[C@H](C(N)=O)n1ccc2c(NC(=O)CC34CC5CC(CC(C5)C3)C4)c(Cl)ccc2c1=O [Compound 2] | 0.8 | + (0-25% F) | 0.1 | – | – |
| C[C@H](C(N)=O)n1ccc2c(NC(=O)Cc3cccc(C(F)(F)F)c3F)c(Cl)ccc2c1=O [Compound 5, (R)-2-{6-Chloro-5-[2-(2-fluoro-3-trifluoromethyl-phenyl)-acetylamino]-1-oxo-1H-isoquinolin-2-yl}-propionamide] | – | + (0-25% F) | 7 | 1.2 | – |
| O=C(Cc1ccc(C(F)(F)F)c(F)c1)Nc1c(Cl)ccc2c(=O)n(CCO)ccc12 [Compound 16, N-[6-Chloro-2-(2-hydroxy-ethyl)-1-oxo-1,2-dihydro-isoquinolin-5-yl]-2-(3-fluoro-4-trifluoromethyl-phenyl)-acetamide] | – | ++++ (>75% F) | 6 | 3.7 | < 0.1 |
| O=C(Cc1ccc(F)c(C(F)(F)F)c1)Nc1c(Cl)ccc2c(=O)n(CCO)ccc12 [Compound 19, N-[6-Chloro-2-(2-hydroxy-ethyl)-1-oxo-1,2-dihydro-isoquinolin-5-yl]-2-(4-fluoro-3-trifluoromethyl-phenyl)-acetamide] | – | + (0-25% F) | 5 | 1.1 | < 0.1 |
| Cc1ccc2c(=O)n(CCO)ccc2c1NC(=O)Cc1ccc(C(F)(F)F)c(F)c1 [Compound 28, 2-(3-Fluoro-4-trifluoromethyl-phenyl)-N-[2-(2-hydroxy-ethyl)-6-methyl-1-oxo-1,2-dihydro-isoquinolin-5-yl]-acetamide] | – | – | 9 | 3.7 | < 0.1 |
| Cc1ccc2c(=O)n([C@H]3CCNC3)ccc2c1NC(=O)Cc1ccc(C(F)(F)F)c(F)c1 [Compound 29, 2-(3-Fluoro-4-trifluoromethyl-phenyl)-N-((S)-6-methyl-1-oxo-2-pyrrolidin-3-yl-1,2-dihydro-isoquinolin-5-yl)-acetamide] | 3.5 | + (0-25% F) | 23 | – | – |
| Cc1ccc2c(=O)n([C@H](C)C(N)=O)ccc2c1NC(=O)Cc1ccc(C(F)(F)F)c(F)c1 [Compound 51, (R)-2-{5-[2-(3-Fluoro-4-trifluoromethyl-phenyl)-acetylamino]-6-methyl-1-oxo-1H-isoquinolin-2-yl}-propionamide] | 1.3 | + (0-25% F) | 0.4 | – | – |
| C[C@H](CO)n1ccc2c(C(=O)NCC3(O)CCC(C(F)(F)F)CC3)c(Cl)ccc2c1=O (stereo partly drawn) [Compound 56, 6-Chloro-2-((R)-2-hydroxy-1-methyl-ethyl)-1-oxo-1,2-dihydro-isoquinoline-5-carboxylic acid (1-hydroxy-4-trifluoromethyl-cyclohexylmethyl)-amide] | 0.7 | – | 9 | – | 0.25 to 0.49 |
| C[C@H](CO)n1ccc2c(C(=O)NCC3(O)CCC4(CC3)CC4(F)F)c(Cl)ccc2c1=O (stereo partly shown) [Compound 65] | 0.62 | – | 0.3 | – | 0.25 to 0.49 |
| C[C@H](CO)n1ccc2c(C(=O)NCC3(O)CCC(F)(F)CC3)c(Cl)ccc2c1=O [Compound 68] | 0.65 | – | 3 | – | 0.25 to 0.49 |

Next, values leading:

| half-life at 1 μM [1] [h] | Oral Bioavailability F (%) [2] | IC50 [3] [nM] | Half Life [1] [h] | fraction unbound at 16 hr, 1 μg/mL [4] | SMILES |
| --- | --- | --- | --- | --- | --- |
| – | ++++ (>75% F) | 10 | 3.2 | < 0.1 | C[C@H](CO)n1ccc2c(NC(=O)Cc3ccc(C(F)(F)F)cc3)c(Cl)ccc2c1=O [Compound 10, N-[6-Chloro-2-((R)-2-hydroxy-1-methyl-ethyl)-1-oxo-1,2-dihydro-isoquinolin-5-yl]-2-(4-trifluoromethyl-phenyl)-acetamide] |
| – | ++++ (>75% F) | 5 | 1.6 | < 0.1 | C[C@H](CO)n1ccc2c(NC(=O)Cc3ccc(C(F)(F)F)c(F)c3)c(Cl)ccc2c1=O [Compound 11, N-[6-Chloro-2-((R)-2-hydroxy-1-methyl-ethyl)-1-oxo-1,2-dihydro-isoquinolin-5-yl]-2-(3-fluoro-4-trifluoromethyl-phenyl)-acetamide] |
| 2.6 | – | 3 | – | 0.1 to 0.24 | Cc1ccc2c(=O)n([C@H](C)CO)ccc2c1C(=O)NCc1ccc(C(F)(F)F)c(F)c1 [Compound 40, 2-((R)-2-Hydroxy-1-methyl-ethyl)-6-methyl-1-oxo-1,2-dihydro-isoquinoline-5-carboxylic acid 3-fluoro-4-trifluoromethyl-benzylamide] |
| 3 | – | 7 | – | < 0.1 | C[C@H](CO)n1ccc2c(C(=O)NCc3ccc(C(F)(F)F)c(F)c3)c(Cl)ccc2c1=O [Compound 41, 6-Chloro-2-((R)-2-hydroxy-1-methyl-ethyl)-1-oxo-1,2-dihydro-isoquinoline-5-carboxylic acid 3-fluoro-4-trifluoromethyl-benzylamide] |
| 0.8 | – | 7 | – | < 0.1 | Cc1ccc2c(=O)n([C@H](C)CO)ccc2c1C(=O)NCc1cccc(C(F)(F)F)c1 [Compound 42, 2-((R)-2-Hydroxy-1-methyl-ethyl)-6-methyl-1-oxo-1,2-dihydro-isoquinoline-5-carboxylic acid 3-trifluoromethyl-benzylamide] |
| 0.3 | + (0-25% F) | 0.7 | – | – | Cc1ccc2c(=O)n([C@H](C)CO)ccc2c1C(=O)NCC1CCCCCC1 [Compound 49, 2-((R)-2-Hydroxy-1-methyl-ethyl)-6-methyl-1-oxo-1,2-dihydro-isoquinoline-5-carboxylic acid cycloheptylmethyl-amide] |
